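Where inhibition never reached the appropriate level, the endpoint shown equals the highest concentration tested. Otherwise, values were interpolated linearly from a five-concentration, 48-hour dose response in 96-well plates. Abbreviation: GI50, concentration required for 50% inhibition of growth. TGI: concentration producing complete growth inhibition.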
Experiments:
Test in all cases: DTP human tumour cell line panel, 48 h
786-0 renal = tested on: 786-0 renal
A498 renal = tested on: A498 renal
A549 NSCLC = tested on: A549 NSCLC
ACHN renal = tested on: ACHN renal
BT-549 breast = tested on: BT-549 breast
CAKI-1 renal = tested on: CAKI-1 renal
CCRF-CEM leukemia = tested on: CCRF-CEM leukemia
COLO 205 colon = tested on: COLO 205 colon
DU-145 prostate = tested on: DU-145 prostate
EKVX NSCLC = tested on: EKVX NSCLC
HCC-2998 colon = tested on: HCC-2998 colon
HCT-116 colon = tested on: HCT-116 colon
HCT-15 colon = tested on: HCT-15 colon
HL-60(TB) leukemia = tested on: HL-60(TB) leukemia
HOP-62 NSCLC = tested on: HOP-62 NSCLC
HOP-92 NSCLC = tested on: HOP-92 NSCLC
HS 578T breast = tested on: HS 578T breast
HT29 colon = tested on: HT29 colon
IGROV1 ovarian = tested on: IGROV1 ovarian
K-562 leukemia = tested on: K-562 leukemia
KM12 colon = tested on: KM12 colon
LOX IMVI melanoma = tested on: LOX IMVI melanoma
MALME-3M melanoma = tested on: MALME-3M melanoma
MCF7 breast = tested on: MCF7 breast
MDA-MB-231 breast = tested on: MDA-MB-231 breast
MDA-MB-435 = tested on: MDA-MB-435
MOLT-4 leukemia = tested on: MOLT-4 leukemia
NCI-H226 lung = tested on: NCI-H226 lung
NCI-H23 lung = tested on: NCI-H23 lung
NCI-H460 lung = tested on: NCI-H460 lung
NCI-H522 lung = tested on: NCI-H522 lung
NCI/ADR-RES ovarian = tested on: NCI/ADR-RES ovarian
OVCAR-3 ovarian = tested on: OVCAR-3 ovarian
OVCAR-4 ovarian = tested on: OVCAR-4 ovarian
OVCAR-5 ovarian = tested on: OVCAR-5 ovarian
OVCAR-8 ovarian = tested on: OVCAR-8 ovarian
PC-3 prostate = tested on: PC-3 prostate
RPMI-8226 leukemia = tested on: RPMI-8226 leukemia
RXF 393 renal = tested on: RXF 393 renal
SF-268 CNS = tested on: SF-268 CNS
SF-295 CNS = tested on: SF-295 CNS
SF-539 CNS = tested on: SF-539 CNS
SK-MEL-2 melanoma = tested on: SK-MEL-2 melanoma
SK-MEL-28 melanoma = tested on: SK-MEL-28 melanoma
SK-MEL-5 melanoma = tested on: SK-MEL-5 melanoma
SK-OV-3 ovarian = tested on: SK-OV-3 ovarian
SN12C renal = tested on: SN12C renal
SNB-19 CNS = tested on: SNB-19 CNS
SNB-75 CNS = tested on: SNB-75 CNS
SR leukemia = tested on: SR leukemia
SW-620 colon = tested on: SW-620 colon
T-47D breast = tested on: T-47D breast
TK-10 renal = tested on: TK-10 renal
U251 CNS = tested on: U251 CNS
UACC-257 melanoma = tested on: UACC-257 melanoma
UACC-62 melanoma = tested on: UACC-62 melanoma
UO-31 renal = tested on: UO-31 renal

C[C@]12CC[C@H]3[C@@H](CC=C4C[C@@H](O)CC[C@@]43C)[C@@H]1CC[C@@H]2[C@](C)(O)CCc1cccnc1
GI50 (786-0 renal): 5.76 µM | TGI (786-0 renal): > 100 µM | GI50 (A498 renal): 2.74 µM | TGI (A498 renal): 62.1 µM | GI50 (A549 NSCLC): 4.44 µM | TGI (A549 NSCLC): > 100 µM | GI50 (ACHN renal): 4.53 µM | TGI (ACHN renal): > 100 µM | GI50 (BT-549 breast): 1.69 µM | TGI (BT-549 breast): 6.55 µM | GI50 (CAKI-1 renal): 7.1 µM | TGI (CAKI-1 renal): > 100 µM | GI50 (CCRF-CEM leukemia): 4.1 µM | TGI (CCRF-CEM leukemia): > 100 µM | GI50 (COLO 205 colon): 3.16 µM | TGI (COLO 205 colon): > 100 µM | GI50 (DU-145 prostate): 3.48 µM | TGI (DU-145 prostate): > 100 µM | GI50 (EKVX NSCLC): 1.59 µM | TGI (EKVX NSCLC): > 100 µM | GI50 (HCC-2998 colon): 4.99 µM | TGI (HCC-2998 colon): > 100 µM | GI50 (HCT-116 colon): 3.42 µM | TGI (HCT-116 colon): > 100 µM | GI50 (HCT-15 colon): 4.29 µM | TGI (HCT-15 colon): > 100 µM | GI50 (HL-60(TB) leukemia): 2.42 µM | TGI (HL-60(TB) leukemia): 7.04 µM | GI50 (HOP-62 NSCLC): 9.27 µM | TGI (HOP-62 NSCLC): > 100 µM | GI50 (HOP-92 NSCLC): 2.11 µM | TGI (HOP-92 NSCLC): > 100 µM | GI50 (HS 578T breast): 3.41 µM | TGI (HS 578T breast): > 100 µM | GI50 (HT29 colon): 4.6 µM | TGI (HT29 colon): > 100 µM | GI50 (IGROV1 ovarian): 6.37 µM | TGI (IGROV1 ovarian): > 100 µM | GI50 (K-562 leukemia): 2.13 µM | TGI (K-562 leukemia): > 100 µM | GI50 (KM12 colon): 5.55 µM | TGI (KM12 colon): > 100 µM | GI50 (LOX IMVI melanoma): 5.63 µM | TGI (LOX IMVI melanoma): > 100 µM | GI50 (MALME-3M melanoma): 2.57 µM | TGI (MALME-3M melanoma): 8.14 µM | GI50 (MCF7 breast): 2.28 µM | TGI (MCF7 breast): > 100 µM | GI50 (MDA-MB-231 breast): 6.39 µM | TGI (MDA-MB-231 breast): > 100 µM | GI50 (MDA-MB-435): 4.6 µM | TGI (MDA-MB-435): > 100 µM | GI50 (MOLT-4 leukemia): 2.75 µM | TGI (MOLT-4 leukemia): 24 µM | GI50 (NCI-H226 lung): 3.7 µM | TGI (NCI-H226 lung): 55 µM | GI50 (NCI-H23 lung): 3.05 µM | TGI (NCI-H23 lung): > 100 µM | GI50 (NCI-H460 lung): 3.99 µM | TGI (NCI-H460 lung): > 100 µM | GI50 (NCI-H522 lung): 2.09 µM | TGI (NCI-H522 lung): 7.79 µM | GI50 (NCI/ADR-RES ovarian): 3.43 µM | TGI (NCI/ADR-RES ovarian): > 100 µM | GI50 (OVCAR-3 ovarian): 9.14 µM | TGI (OVCAR-3 ovarian): > 100 µM | GI50 (OVCAR-4 ovarian): 1.25 µM | TGI (OVCAR-4 ovarian): > 100 µM | GI50 (OVCAR-5 ovarian): > 100 µM | TGI (OVCAR-5 ovarian): > 100 µM | GI50 (OVCAR-8 ovarian): 4.82 µM | TGI (OVCAR-8 ovarian): > 100 µM | GI50 (PC-3 prostate): 3.55 µM | TGI (PC-3 prostate): > 100 µM | GI50 (RPMI-8226 leukemia): 1.88 µM | TGI (RPMI-8226 leukemia): 49.9 µM | GI50 (RXF 393 renal): 1.94 µM | TGI (RXF 393 renal): 7.78 µM | GI50 (SF-268 CNS): 5.3 µM | TGI (SF-268 CNS): > 100 µM | GI50 (SF-295 CNS): 2.21 µM | TGI (SF-295 CNS): 9.64 µM | GI50 (SF-539 CNS): 6.11 µM | TGI (SF-539 CNS): > 100 µM | GI50 (SK-MEL-2 melanoma): 7.44 µM | TGI (SK-MEL-2 melanoma): > 100 µM | GI50 (SK-MEL-28 melanoma): 4.27 µM | TGI (SK-MEL-28 melanoma): > 100 µM | GI50 (SK-MEL-5 melanoma): 1.01 µM | TGI (SK-MEL-5 melanoma): 2.6 µM | GI50 (SK-OV-3 ovarian): 6.49 µM | TGI (SK-OV-3 ovarian): > 100 µM | GI50 (SN12C renal): 47.1 µM | TGI (SN12C renal): > 100 µM | GI50 (SNB-19 CNS): 6.77 µM | TGI (SNB-19 CNS): > 100 µM | GI50 (SNB-75 CNS): 2.92 µM | TGI (SNB-75 CNS): > 100 µM | GI50 (SR leukemia): 2.95 µM | TGI (SR leukemia): > 100 µM | GI50 (SW-620 colon): 5.49 µM | TGI (SW-620 colon): > 100 µM | GI50 (T-47D breast): 2.09 µM | TGI (T-47D breast): > 100 µM | GI50 (TK-10 renal): 7.58 µM | TGI (TK-10 renal): > 100 µM | GI50 (U251 CNS): 6.5 µM | TGI (U251 CNS): > 100 µM | GI50 (UACC-257 melanoma): 3.03 µM | TGI (UACC-257 melanoma): > 100 µM | GI50 (UACC-62 melanoma): 3.19 µM | TGI (UACC-62 melanoma): > 100 µM | GI50 (UO-31 renal): 1.97 µM | TGI (UO-31 renal): > 100 µM
